According to patent US10568950B1, “Peptides, combination of peptides and scaffolds for use in immunotherapeutic treatment of various cancers” (Immatics Biotechnologies GmbH, priority 2015, dated 2020):

The substances below were run on CD8+ T cells of healthy HLA-A*24+ donors (assay: In vitro immunogenicity: priming of CD8+ T cells with aAPCs loaded with HLA-A*24/peptide complexes and anti-CD28, multimer staining). Settings: in vitro immunogenicity, HLA-A*24 peptides of Table 12B.
Type: cell-based, human
Description: CD8+ T cells were primed using artificial APCs coated with anti-CD28 mAb and HLA-A*24 in complex with SEQ ID NO: 99 peptide (FIG. 5A, left panel), SEQ ID NO: 119 peptide (FIG. 5B, left panel), SEQ ID NO: 142 peptide (FIG. 5C, left panel) and SEQ ID NO: 174 peptide (FIG. 5D, left panel), respectively. After three cycles of stimulation, the detection of peptide-reactive cells was performed by 2D multimer staining with A*24/SEQ ID NO: 99 (A), A*24/SEQ ID NO: 119 (B), A*24/SEQ ID NO: 142 (C) or A*24/SEQ ID NO: 174 (D). Right panels (FIGS. 5A, 5B, 5C and 5D) show control staining of cells stimulated with irrelevant A*24/peptide complexes. Viable singlet cells were gated for CD8+ lymphocytes. Boolean gates helped excluding false-positive events detected with multimers specific for different peptides. Frequencies of specific multimer+ cells among CD8+ lymphocytes are indicated.
In order to obtain information regarding the immunogenicity of the TUMAPs of the present invention, the inventors performed investigations using an in vitro T-cell priming assay based on repeated stimulations of CD8+ T cells with artificial antigen presenting cells (aAPCs) loaded with peptide/MHC complexes and anti-CD28 antibody.
PBMCs and isolated CD8+ lymphocytes were incubated in T-cell medium (TCM) until use consisting of RPMI-Glutamax (Invitrogen, Karlsruhe, Germany) supplemented with 10% heat inactivated human AB serum (PAN-Biotech, Aidenbach, Germany), 100 U/ml Penicillin/100 μg/ml Streptomycin (Cambrex, Cologne, Germany), 1 mM sodium pyruvate (CC Pro, Oberdorla, Germany), 20 μg/ml Gentamycin (Cambrex). 2.5 ng/ml IL-7 (PromoCell, Heidelberg, Germany) and 10 U/ml IL-2 (Novartis Pharma, Nurnberg, Germany) were also added to the TCM at this step.
Generation of pMHC/anti-CD28 coated beads, T-cell stimulations and readout was performed in a highly defined in vitro system using four different pMHC molecules per stimulation condition and 8 different pMHC molecules per readout condition.
The purified co-stimulatory mouse IgG2a anti human CD28 Ab 9.3 (Jung et al., 1987) was chemically biotinylated using Sulfo-N-hydroxysuccinimidobiotin as recommended by the manufacturer (Perbio, Bonn, Germany). Beads used were 5.6 μm diameter streptavidin coated polystyrene particles (Bangs Laboratories, Illinois, USA).
800.000 beads/200 μl were coated in 96-well plates in the presence of 4×12.5 ng different biotin-pMHC, washed and 600 ng biotin anti-CD28 were added subsequently in a volume of 200 μl. Stimulations were initiated in 96-well plates by co-incubating […] CD8+ T cells with 2×10^5 washed coated beads in 200 μl TCM supplemented with 5 ng/ml IL-12 (PromoCell) for 3 days at 37° C. Half of the medium was then exchanged by fresh TCM supplemented with 80 U/ml IL-2 and incubating was continued for 4 days at 37° C. This stimulation cycle was performed for a total of three times. For the pMHC multimer readout using 8 different pMHC molecules per condition, a two-dimensional combinatorial coding approach was used as previously described (Andersen et al., 2012) with minor modifications encompassing coupling to 5 different fluorochromes. Finally, multimeric analyses were performed by staining the cells with Live/dead near IR dye (Invitrogen, Karlsruhe, Germany), CD8-FITC antibody clone SKI (BD, Heidelberg, Germany) and fluorescent pMHC multimers. For analysis, a BD LSRII SORP cytometer equipped with appropriate lasers and filters was used. Peptide specific cells were calculated as percentage of total CD8+ cells. Evaluation of multimeric analysis was done using the FlowJo software (Tree Star, Oreg., USA). In vitro priming of specific multimer+ CD8+ lymphocytes was detected by comparing to negative control stimulations.

Substance	Wells positive [%]
98 (VFPRLHNVLF; listed as Homo sapiens) [compound 98]	+ (<20% = +)
102 (VYPFENFEF; listed as Homo sapiens) [compound 102]	+++ (50%-69% = +++)
103 (NYIPVKNGKQF; listed as Homo sapiens) [compound 103]	+ (<20% = +)
105 (IYNETITDLL; listed as Homo sapiens) [compound 105]	+ (<20% = +)
106 (IYNETVRDLL; listed as Homo sapiens) [compound 106]	+ (<20% = +)
107 (KYFPYLVVI; listed as Homo sapiens) [compound 107]	++ (20%-49% = ++)
110 (SYPKIIEEF; listed as Homo sapiens) [compound 110]	++ (20%-49% = ++)
111 (VYVQILQKL; listed as Homo sapiens) [compound 111]	+ (<20% = +)
112 (IYNFVESKL; listed as Homo sapiens) [compound 112]	+++ (50%-69% = +++)
115 (RYLNKSFVL; listed as Homo sapiens) [compound 115]	+ (<20% = +)
119 (VYRVYVTTF; listed as Homo sapiens) [compound 119]	+++ (50%-69% = +++)
122 (EYQARIPEF; listed as Homo sapiens) [compound 122]	++ (20%-49% = ++)
139 (IFGIFPNQF; listed as Homo sapiens) [compound 139]	++ (20%-49% = ++)
142 (VYVDDIYVI; listed as Homo sapiens) [compound 142]	++++ (>= 70 % = ++++)
157 (DYIPASGFALF; listed as Homo sapiens) [compound 157]	+ (<20% = +)
158 (IYEETRGVLKVF; listed as Homo sapiens) [compound 158]	+ (<20% = +)
160 (RYGDGGSSF; listed as Homo sapiens) [compound 160]	+ (<20% = +)
161 (KYPDIVQQF; listed as Homo sapiens) [compound 161]	+ (<20% = +)
162 (KYTSYILAF; listed as Homo sapiens) [compound 162]	+ (<20% = +)

The substances below were run on HLA-A*24 (assay: MHC binding assay: UV-ligand exchange, beta2m ELISA (peptide exchange yield)). Settings: binding to HLA-A*24, β2m ELISA.
Set-up: species or system human
Source text: Candidate peptides for T cell based therapies according to the present invention were further tested for their MHC binding capacity (affinity). The individual peptide-MHC complexes were produced by UV-ligand exchange, where a UV-sensitive peptide is cleaved upon UV-irradiation, and exchanged with the peptide of interest as analyzed. Only peptide candidates that can effectively bind and stabilize the peptide-receptive MHC molecules prevent dissociation of the MHC complexes. To determine the yield of the exchange reaction, an ELISA was performed based on the detection of the light chain (β2m) of stabilized MHC complexes. The assay was performed as generally described in Rodenko et al. (Rodenko et al., 2006).
96 well MAXISorp plates (NUNC) were coated over night with 2 ug/ml streptavidin in PBS at room temperature, washed 4× and blocked for 1 h at 37° C. in 2% BSA containing blocking buffer. […] Peptide-MHC monomers of the UV-exchange reaction were diluted 100 fold in blocking buffer. Samples were incubated for 1 h at 37° C., washed four times, incubated with 2 ug/ml HRP conjugated anti-βm for 1 h at 37° C., washed again and detected with TMB solution that is stopped with […]. Absorption was measured at 450 nm. Candidate peptides that show a high exchange yield (preferably higher than 50%, most preferred higher than 75%) are generally preferred for a generation and production of antibodies or fragments thereof, and/or T cell receptors or fragments thereof, as they show sufficient avidity to the MHC molecules and prevent dissociation of the MHC complexes.

Substance	Peptide exchange (MHC class I binding score, peptide exchange yield)
249 (RYHPTTCTI; listed as Homo sapiens) [compound 249]	++++ (>= 75% = ++++)
252 (AFGQETNVPLNNF; listed as Homo sapiens) [compound 252]	++++ (>= 75% = ++++)
260 (VYMNVMTRL; listed as Homo sapiens) [compound 260]	++++ (>= 75% = ++++)
261 (GYIKLINFI; listed as Homo sapiens) [compound 261]	++++ (>= 75% = ++++)

The remaining lines, values ahead:

Peptide exchange (MHC class I binding score, peptide exchange yield)	Substance
++++ (>= 75% = ++++)	262 (VYSSQFETI; listed as Homo sapiens) [compound 262]
++++ (>= 75% = ++++)	264 (LYTETRLQF; listed as Homo sapiens) [compound 264]
++++ (>= 75% = ++++)	265 (SYLNEAFSF; listed as Homo sapiens) [compound 265]
++++ (>= 75% = ++++)	271 (RFLMKSYSF; listed as Homo sapiens) [compound 271]
++++ (>= 75% = ++++)	272 (RYVFPLPYL; listed as Homo sapiens) [compound 272]
++++ (>= 75% = ++++)	274 (KQLDIANYELF; listed as Homo sapiens) [compound 274]
++++ (>= 75% = ++++)	275 (KYGTLDVTF; listed as Homo sapiens) [compound 275]
++++ (>= 75% = ++++)	276 (QYLDVLHAL; listed as Homo sapiens) [compound 276]
++++ (>= 75% = ++++)	280 (TYNPNLQDKL; listed as Homo sapiens) [compound 280]
++++ (>= 75% = ++++)	286 (SYGTILSHI; listed as Homo sapiens) [compound 286]
++++ (>= 75% = ++++)	289 (FFHEGQYVF; listed as Homo sapiens) [compound 289]
++++ (>= 75% = ++++)	290 (KYGDFKLLEF; listed as Homo sapiens) [compound 290]
++++ (>= 75% = ++++)	292 (FYPQIINTF; listed as Homo sapiens) [compound 292]
++++ (>= 75% = ++++)	293 (VYPHFSTTNLI; listed as Homo sapiens) [compound 293]
++++ (>= 75% = ++++)	296 (SYQVIFQHF; listed as Homo sapiens) [compound 296]
++++ (>= 75% = ++++)	297 (TYIDTRTVF; listed as Homo sapiens) [compound 297]
++++ (>= 75% = ++++)	298 (AYKSEVVYF; listed as Homo sapiens) [compound 298]
++++ (>= 75% = ++++)	301 (KFDDVTMLF; listed as Homo sapiens) [compound 301]
++++ (>= 75% = ++++)	305 (NYENKQYLF; listed as Homo sapiens) [compound 305]
++++ (>= 75% = ++++)	311 (EYLQNLNHI; listed as Homo sapiens) [compound 311]
++++ (>= 75% = ++++)	313 (KYTHFIQSF; listed as Homo sapiens) [compound 313]
++++ (>= 75% = ++++)	319 (KYSDVKNLI; listed as Homo sapiens) [compound 319]
++++ (>= 75% = ++++)	357 (QFITSTNTF; listed as Homo sapiens) [compound 357]
++++ (>= 75% = ++++)	379 (VFIAQGYTL; listed as Homo sapiens) [compound 379]
